Measurements as given in ChEMBL document CHEMBL4052691, “Discovery of BMS-961955, an allosteric inhibitor of the hepatitis C virus NS5B polymerase” (Bioorg Med Chem Lett, 2017).

What was measured:
[1] = (§1) AUC (0 to 6 hrs) in rat at 5 mg/kg, iv; type: ADME, organism-based; set-up: dose 5 mg/kg, time < 6 hr, route intravenous; conditions: in vivo
[2] = Apparent permeability of the compound at pH 5.5 by PAMPA; type: physicochemical
[3] = Apparent permeability of the compound at pH 7.4 by PAMPA; type: physicochemical
[4] = Oral bioavailability rat at 10 mg/kg; type: ADME, organism-based; conditions: in vivo
[5] = AUC (0 to 24 hrs) in rat at 5 mg/kg, iv; type: ADME, organism-based; set-up: time < 24 hr, dose 5 mg/kg, route intravenous; conditions: in vivo
[6] = Oral bioavailability in cynomolgus monkey at 3 mg/kg; type: ADME, organism-based, Macaca fascicularis; conditions: in vivo
[7] = Volume of distribution at steady state in rat at 5 mg/kg, iv; type: ADME, organism-based; conditions: in vivo, read-out: Vdss
[8] = AUC (0 to 24 hrs) in dog at 1 mg/kg, iv; type: ADME, organism-based, Canis lupus familiaris; set-up: time < 24 hr, dose 1 mg/kg, route intravenous; conditions: in vivo
[9] = AUC (0 to 24 hrs) in cynomolgus monkey at 3 mg/kg, […]; type: ADME, organism-based, Macaca fascicularis; set-up: dose 3 mg/kg, time < 24 hr; conditions: in vivo
[10] = Volume of distribution at steady state in dog at 1 mg/kg, iv; type: ADME, organism-based, Canis lupus familiaris; conditions: in vivo, read-out: Vdss
[11] = Volume of distribution at steady state in cynomolgus monkey at 1 mg/kg, iv; type: ADME, organism-based, Macaca fascicularis; conditions: in vivo, read-out: Vdss
[12] = AUC (0 to 24 hrs) in cynomolgus monkey at 1 mg/kg, iv; type: ADME, organism-based, Macaca fascicularis; set-up: dose 1 mg/kg, time < 24 hr, route intravenous; conditions: in vivo
[13] = Oral bioavailability in dog at 3 mg/kg; type: ADME, organism-based, Canis lupus familiaris; conditions: in vivo
[14] = AUC (0 to 24 hrs) in rat at 10 mg/kg, iv; type: ADME, organism-based; set-up: dose 10 mg/kg, time < 24 hr, route intravenous; conditions: in vivo
[15] = AUC (0 to 24 hrs) in dog at 3 mg/kg, po; type: ADME, organism-based, Canis lupus familiaris; set-up: time < 24 hr, dose 3 mg/kg, route oral; conditions: in vivo
Rattus norvegicus = test: as §1; type: ADME, organism-based; set-up: dose 5 mg/kg, time < 6 hr, route intravenous; conditions: in vivo, 6 h

bioavailability [4] | AUC(0-t) at 24 h [5] | SMILES | Papp [2] | Papp [3] | also measured
23% | 1.51 µM·h | CN1CC2CCC(C1)N2C(=O)[C@]12C[C@H]1c1cc(F)ccc1-c1c(C3CCCCC3)c3ccc(C(=O)NS(=O)(=O)C4CC4)cc3n1C2 |  |  | 
13.6% | 0.857 µM·h | CCS(=O)(=O)NC(=O)c1ccc2c(C3CCCCC3)c3n(c2c1)C[C@@]1(C(=O)N2C4CCC2CN(C)C4)C[C@H]1c1cc(F)ccc1-3 |  |  | 
19% |  | CN1CC2CCC(C1)N2C(=O)[C@]12C[C@H]1c1cc(F)ccc1-c1c(C3CCCCC3)c3ccc(C(=O)NS(=O)(=O)N4CCC4)cc3n1C2 |  |  | AUC (Rattus norvegicus): 0.5 µM·h

The next lines start with the compound.

SMILES | bioavailability [4] | AUC(0-t) at 24 h [5] | Papp [2] | Papp [3] | also measured
CN1CC2CCC(C1)N2C(=O)[C@]12C[C@H]1c1cc(F)ccc1-c1c(C3CCCCC3)c3ccc(C(=O)NS(=O)(=O)C(C)(C)C)cc3n1C2 | 8% |  | 13.5 ×10⁻⁶ cm/s | 23.8 ×10⁻⁶ cm/s | AUC(0-t) at 6 h [1]: 1.3 µM·h
CN1CC2CCC(C1)N2C(=O)[C@]12C[C@H]1c1cc(F)ccc1-c1c(C3CCCCC3)c3ccc(C(=O)NS(=O)(=O)C4(C)CC4)cc3n1C2 | 52% | 12.3 to 12.4 µM·h | 52.3 ×10⁻⁶ cm/s | 59 ×10⁻⁶ cm/s | bioavailability [6]: 48%; Vd [7]: 3.9 L/kg; AUC(0-t) at 24 h [8]: 25.7 µM·h; AUC(0-t) at 24 h [9]: 3.1 µM·h; Vd [10]: 0.6 L/kg; Vd [11]: 3.1 L/kg; AUC(0-t) at 24 h [12]: 2.3 µM·h; bioavailability [13]: 84%; AUC(0-t) at 24 h [14]: 12.4 µM·h; AUC(0-t) at 24 h [15]: 62.1 µM·h
